Assay results from patent publication US20130059805A1, “COMPOSITION COMPRISING AN AMORPHOUS NON-CRYSTALLINE GLASS FORM OF AZITHROMYCIN” (North-West University, priority 2009, published 2013).
Converted amounts (≈) assume the structure as drawn. Where two headings read alike, the source gives them in different places. Each block holds one molecule with its values, some of them ahead of it.

Columns and labels:
[1] = Structural stability study at 40° C. and 75% relative humidity (XRPD, DSC, thermal microscopy); type: physicochemical; details: 4 week testing period
Description: FIG. 5: is a characteristic XRPD (x-ray powder diffraction pattern) of amorphous non-crystalline glass form (Form-II) of azithromycin taken over a period of time wherein 0 is at time of preparation, 1 is week 1, 2 is week 2, 3 is week 3 and 4 is week 4 (Vertical axis: intensity (Lin (counts)); Horizontal axis: 2 Theta (degrees));
FIG. 12: is a DSC (differential scanning calorimetry) trace of amorphous non-crystalline glass form (Form-II) of azithromycin, taken over a period of time, according to one embodiment of the invention wherein 0 is at time of preparation, 1 is week 1, 2 is week 2, 3 is week 3 and 4 is week 4 (Vertical axis: Heat flow (mW); Horizontal axis: temperature (degrees Celsius));
FIG. 13: is a thermal microscopy image (at 25 degrees Celsius) of amorphous non-crystalline glass form (Form-II) of azithromycin taken in the fourth week after preparation according to one embodiment of the invention; and […]

[2] = Solubility in four media (excess solid, 37 degrees Celsius, 24 h, HPLC assay); type: physicochemical; details: for solubility at 24 h: 37 °C, thermodynamic from solid
Experimental: In further analysis of the amorphous non-crystalline glass form (Form-II) of azithromycin, each of five replicate test tubes were filled with an excess of amorphous non-crystalline glass form (Form-II) of azithromycin and 10 ml of solubility medium. The process was performed with each of the following mediums: 0.1 N hydrochloric acid (pH 1), acetate buffer (pH 4.5), phosphate buffer (pH 6.8) and distilled water. This method was also used for testing the prior art azithromycin dihydrate.
The test tubes were then fixed to a rotating axis (54 rpm) and submerged in a water bath at 37 degrees Celsius±2 degrees Celsius for twenty-four hours. The contents of the test tubes were filtered through a 0.45 μm filter and the respective filtrates were subsequently diluted.
The concentrations of the filtrates were determined by HPLC (high performance liquid chromatography) assay. The HPLC assay was performed utilising a mobile phase (600:400) consisting of 8.7 g/L potassium dihydrogen phosphate buffer (pH 4.5) and acetonitrile. A Luna C18 250 mm×4.6 mm column was used with a flow rate of 0.5 mL/min and a wavelength of 210 nm. Validation of this method provided a linear regression r^2 of 0.9999.

[3] = background statement; cited from earlier work
[4] = oral; cited from earlier work
[5] = 0.1 N HCl; cited from earlier work

- structural stability (solid form) [1]: structurally stable
- solubility in 0.1 N HCl ([2]; 0.1 N HCl (pH 1), 37 degrees Celsius): 45.703 ± 0.917 mg/mL (≈ 61 mM)
- solubility in acetate buffer (pH 4.5) ([2]; acetate buffer pH 4.5, 37 degrees Celsius): 18.045±0.485 mg/mL
- solubility in distilled water ([2]; distilled water, 37 degrees Celsius): 1.357 ± 0.233 mg/mL (≈ 1.81 mM)
- solubility in phosphate buffer (pH 6.8) ([2]; phosphate buffer pH 6.8, 37 degrees Celsius): 10.968±0.182 mg/mL
SMILES: CC[C@H]1OC(=O)[C@H](C)[C@@H](O[C@H]2C[C@@](C)(OC)[C@@H](O)[C@H](C)O2)[C@H](C)[C@@H](O[C@@H]2O[C@H](C)C[C@H](N(C)C)[C@H]2O)[C@](C)(O)C[C@@H](C)CN(C)[C@H](C)[C@@H](O)[C@]1(C)O

- solubility at 24 h ([2]; 0.1 N hydrochloric acid, simulated gastric fluid, 0.1 N HCl (pH 1), 37 degrees Celsius, read-out: solubility in 0.1 N HCl): 40.81 ± 0.368 mg/mL
- solubility at 24 h ([2]; aqueous buffer, acetate buffer pH 4.5, 37 degrees Celsius, read-out: solubility in acetate buffer (pH 4.5)): 17.97 ± 0.113 mg/mL
- solubility at 24 h ([2]; aqueous buffer, phosphate buffer pH 6.8, 37 degrees Celsius, read-out: solubility in phosphate buffer (pH 6.8)): 8.442 ± 0.069 mg/mL
- solubility at 24 h ([2]; distilled water, 37 degrees Celsius, read-out: solubility in distilled water): 0.148 ± 0.028 mg/mL
SMILES: CC[C@H]1OC(=O)[C@H](C)[C@@H](O[C@H]2C[C@@](C)(OC)[C@@H](O)[C@H](C)O2)[C@H](C)[C@@H](O[C@@H]2O[C@H](C)C[C@H](N(C)C)[C@H]2O)[C@](C)(O)C[C@@H](C)CN(C)[C@H](C)[C@@H](O)[C@]1(C)O [azithromycin raw material (dihydrate), azithromycin dihydrate]
- water solubility (in words) [3]: poorly soluble in water

SMILES: CC[C@H]1OC(=O)[C@H](C)[C@@H](O[C@H]2C[C@@](C)(OC)[C@@H](O)[C@H](C)O2)[C@H](C)[C@@H](O[C@@H]2O[C@H](C)C[C@H](N(C)C)[C@H]2O)[C@](C)(O)C[C@@H](C)CN(C)[C@H](C)[C@@H](O)[C@]1(C)O [azithromycin, (2R,3S,4R,5R,8R,10R,11R,12S,13S,14R)-2-ethyl-3,4,10-trihydroxy-3,5,6,8,10,12,14-heptamethyl-15-oxo-11-{[3,4,6-trideoxy-3-(dimethylamino)-β-D-xylo-hexopyranosyl]oxy}-1-oxa-6-azacyclopentadec-13-yl 2,6-dideoxy-3-C-methyl-3-O-methyl-α-L-ribo-hexopyranoside]
- bioavailability (share of an orally administered dose reaching systemic circulation) [4]: 38%
- acid stability [5]: acid-stable
